Test results taken from patent US20220387602A1, “BIFUNCTIONAL DEGRADERS AND THEIR METHODS OF USE” (NOVARTIS AG, priority 2019, published 2022).

How the values were obtained:
CRBN [1] = target: T1, CRBN (Homo sapiens, UniProt Q96SW2); test: CRBN displacement assay Format 2b (as 2a, quadruplicate, PHERAstar reader); type: binding
Experimental: Assay conditions are similar to Format 2a with the exception of • a. The assay run in quadruplicate • b. PHERAstar reader (BMG Labtech, Offenburg, Germany) was used instead of an Envision reader • c. For the determination of AC50 values, assays were performed at room temperature in 1536-well plates with a total assay volume of […] per well. The test compounds were dissolved and diluted in 100% DMSO. For the assays, 30 nL of DMSO or compound solution were added per well, followed by the addition of 3 μL protein solution (80 nM protein in 1× assay buffer).

CRBN [2] = target: T1, CRBN; test: CRBN displacement assay Format 2a (fluorescence polarization, 1536-well, Envision reader); type: binding
Method in brief: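 Competition format: compound first equilibrated with CRBN protein (nominally 40 nM) for 45 min at RT, then challenged 45 min with 5 nM BodipyFL-conjugated lenalidomide tracer. FP measured at 480 nm excitation/535 nm emission; AC50 derived by four-parameter logistic fit of %-saturation.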

BTK = target: T2, BTK (Homo sapiens, UniProt Q06187); test: BTK-GFP protein abundance flow cytometry assay in HEK293A; type: cell-based; conditions: 24 h; for BTK degradation Amax: % protein remaining at the concentration at which maximum degradation is seen, HEK293A; for DC50: concentration at which 50% maximal degradation was observed, HEK293A BTK-GFP sensor cells
T2 construct: the BTK open reading frame (ORF) was first shuttled from a pcDNA-DEST40-BTK vector; expressed in transfected cells; host or cells: HEK293A (Invitrogen R70507), lentiviral transduction, blasticidin selection
Method in brief: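 HEK293A cells stably expressing bicistronic BTK-GFP-iresRFP were treated 24 h at 37° C with 10-point 1:3 dilutions from 10 μM, DMSO at 0.1%. GFP was read by flow cytometry as median of 5,000 single cells, scaled between RFP-only cells (0%) and DMSO controls (100%). DC50 = concentration at 50% degradation; Amax = % protein remaining at maximal degradation.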

CRBN [3] = target: T1, CRBN; test: CRBN displacement assay Format 1 (fluorescence polarization, BodipyFL-lenalidomide probe Compound HH); type: binding
Method in brief: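 Compound and CRBN protein (nominally 100 nM) were preincubated for 45 min at room temperature before a 5 nM BodipyFL-lenalidomide probe started competition, with 0.9% DMSO final. Polarization was measured 45 min later, exciting at 485 nm and reading 520 nm. AC50 came from a logistic fit with Hill coefficient.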

[4] = concentration at which 50% of reference probe Compound HH is displaced, quadruplicate, read-out: CRBN AC50 [μM] Format 2b
[5] = concentration at which 50% of reference probe Compound HH is displaced, 40 nM protein, 5 nM probe, read-out: CRBN AC50 [μM] Format 2a

T2 sequence (Q06187 whole entry): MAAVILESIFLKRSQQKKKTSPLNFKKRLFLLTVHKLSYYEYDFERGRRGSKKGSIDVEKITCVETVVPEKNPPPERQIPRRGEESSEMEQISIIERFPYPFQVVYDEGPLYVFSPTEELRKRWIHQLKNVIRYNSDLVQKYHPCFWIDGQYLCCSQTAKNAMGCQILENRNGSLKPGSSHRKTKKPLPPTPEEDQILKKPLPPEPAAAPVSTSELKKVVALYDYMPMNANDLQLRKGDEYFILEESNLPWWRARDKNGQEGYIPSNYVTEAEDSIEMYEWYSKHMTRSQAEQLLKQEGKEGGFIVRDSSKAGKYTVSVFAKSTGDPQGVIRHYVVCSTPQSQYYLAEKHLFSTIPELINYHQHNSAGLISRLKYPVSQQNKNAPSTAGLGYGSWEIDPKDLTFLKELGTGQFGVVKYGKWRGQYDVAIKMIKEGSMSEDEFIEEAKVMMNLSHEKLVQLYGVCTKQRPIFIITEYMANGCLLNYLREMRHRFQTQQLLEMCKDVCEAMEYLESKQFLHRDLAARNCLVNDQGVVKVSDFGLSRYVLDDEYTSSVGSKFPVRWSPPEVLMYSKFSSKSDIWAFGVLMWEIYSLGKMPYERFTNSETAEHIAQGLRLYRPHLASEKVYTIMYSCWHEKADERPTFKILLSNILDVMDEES
T1 sequence (Q96SW2 whole entry): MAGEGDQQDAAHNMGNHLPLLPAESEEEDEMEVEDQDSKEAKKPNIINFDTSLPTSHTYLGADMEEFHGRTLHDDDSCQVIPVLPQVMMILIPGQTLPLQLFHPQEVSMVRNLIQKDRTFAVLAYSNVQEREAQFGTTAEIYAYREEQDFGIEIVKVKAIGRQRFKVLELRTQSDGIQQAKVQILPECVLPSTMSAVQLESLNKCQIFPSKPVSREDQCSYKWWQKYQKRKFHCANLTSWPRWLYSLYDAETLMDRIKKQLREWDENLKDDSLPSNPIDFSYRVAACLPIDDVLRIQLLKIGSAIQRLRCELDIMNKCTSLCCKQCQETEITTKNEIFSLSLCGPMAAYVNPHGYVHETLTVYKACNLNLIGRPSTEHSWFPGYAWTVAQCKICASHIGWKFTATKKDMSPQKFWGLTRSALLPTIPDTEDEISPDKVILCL

Compound	BTK degradation Amax (BTK)	DC50 (BTK)	AC50 (CRBN [3])	other results
O=C1CCN(c2cncc(Br)c2)C(=O)N1 [ILB-76, 1-(5-Bromopyridin-3-yl)dihydropyrimidine-2,4(1H,3H)-dione]				AC50 (CRBN [1]; [4]): 15.3 µM; AC50 (CRBN [2]; [5]): 8.09 µM
CC(O)c1ccc(N2CCC(=O)NC2=O)cn1 (centres unmarked) [ILB-75, 1-(6-(1-Hydroxyethyl)pyridin-3-yl)dihydropyrimidine-2,4(1H,3H)-dione]				AC50 (CRBN [1]): 28.7 µM; AC50 (CRBN [2]): > 50 µM; CRBN Amax* (% at 50 μM) Format 2a (CRBN [2]; greatest effect as % displacement of the reference probe at the highest concentration tested (50 μM), given where AC50 >50 μM, 45 min): 40%
O=C1CCN(c2cncc(O)c2)C(=O)N1 [ILB-77, 1-(5-Hydroxypyridin-3-yl)dihydropyrimidine-2,4(1H,3H)-dione]				AC50 (CRBN [1]; [4]): 0.3 µM; AC50 (CRBN [2]; [5]): 0.5 µM
COC(=O)c1cncc(N2CCC(=O)NC2=O)c1 [ILB-72, Methyl 5-(2,4-dioxotetrahydropyrimidin-1(2H)-yl)nicotinate]				AC50 (CRBN [1]; [4]): 18 µM; AC50 (CRBN [2]; [5]): 29.4 µM
C=C(C)c1cncc(N2CCC(=O)NC2=O)c1 [ILB-74, 1-(5-(Prop-1-en-2-yl)pyridin-3-yl)dihydropyrimidine-2,4(1H,3H)-dione]				AC50 (CRBN [1]; [4]): 4.61 µM; AC50 (CRBN [2]; [5]): 6.28 µM
Cc1c(NC(=O)N2CC(O)(CC(C)(C)C)C2)cc(F)cc1-c1ncnc2[nH]c(-c3ccc(OCCCN4CCN(C(=O)COc5ccc(Cl)c(N6CCC(=O)NC6=O)c5)CC4)nc3)cc12 [Compound 13, N-(3-(6-(6-(3-(4-(2-(4-chloro-3-(2,4-dioxotetrahydropyrimidin-1(2H)-yl)phenoxy)acetyl)piperazin-1-yl)propoxy)pyridin-3-yl)-7H-pyrrolo[2,3-d]pyrimidin-4-yl)-5-fluoro-2-methylphenyl)-3-hydroxy-3-neopentylazetidine-1-carboxamide]	4.6%	3.7 nM	575 nM	
Cc1c(NC(=O)c2ccc(C(C)(C)O)cc2F)cc(F)cc1-c1ncnc2[nH]c(-c3ccc(CN4CCC(OC5CCN(CCn6cccc(CN7CCC(=O)NC7=O)c6=O)CC5)CC4)cc3)cc12 [Compound 33, N-(3-(6-(4-((4-((1-(2-(3-((2,4-dioxotetrahydropyrimidin-1(2H)-yl)methyl)-2-oxopyridin-1(2H)-yl)ethyl)piperidin-4-yl)oxy)piperidin-1-yl)methyl)phenyl)-7H-pyrrolo[2,3-d]pyrimidin-4-yl)-5-fluoro-2-methylphenyl)-2-fluoro-4-(2-hydroxypropan-2-yl)benzamide]	6.1%	2.1 nM	915 nM	
Cc1c(NC(=O)c2ccc(C(C)(C)O)cc2F)cc(F)cc1-c1ncnc2[nH]c(-c3ccc(CN(C)CCCCCCOc4cccc(N5CCC(=O)NC5=O)c4)cc3)cc12 [Compound 16, N-(3-(6-(4-(((6-(3-(2,4-Dioxotetrahydropyrimidin-1(2H)-yl)phenoxy)hexyl)(methyl)amino)methyl)phenyl)-7H-pyrrolo[2,3-d]pyrimidin-4-yl)-5-fluoro-2-methylphenyl)-2-fluoro-4-(2-hydroxypropan-2-yl)benzamide]	15.9%	22.6 nM	916 nM	
Cc1c(NC(=O)c2ccc(C(C)(C)O)cc2F)cc(F)cc1-c1ncnc2[nH]c(C3=CCN(C(=O)CCCCN4CCC(Oc5ccc(N6CCC(=O)NC6=O)cc5)CC4)CC3)cc12 [Compound 27, N-(3-(6-(1-(5-(4-(4-(2,4-Dioxotetrahydropyrimidin-1(2H)-yl)phenoxy)piperidin-1-yl)pentanoyl)-1,2,3,6-tetrahydropyridin-4-yl)-7H-pyrrolo[2,3-d]pyrimidin-4-yl)-5-fluoro-2-methylphenyl)-2-fluoro-4-(2-hydroxypropan-2-yl)benzamide]	21.7%	22 nM	1940 nM	
Cc1c(NC(=O)c2ccc(C(C)(C)O)cc2F)cc(F)cc1-c1ncnc2[nH]c(-c3ccc(CNCCCCOCCn4cccc(CN5CCC(=O)NC5=O)c4=O)cc3)cc12 [Compound 34, N-(3-(6-(4-(((4-(2-(3-((2,4-dioxotetrahydropyrimidin-1(2H)-yl)methyl)-2-oxopyridin-1(2H)-yl)ethoxy)butyl)amino)methyl)phenyl)-7H-pyrrolo[2,3-d]pyrimidin-4-yl)-5-fluoro-2-methylphenyl)-2-fluoro-4-(2-hydroxypropan-2-yl)benzamide]	40.3%	642 nM	736 nM	
COc1cc(C(=O)N2CCC(OC3CCN(Cc4ccc(-c5cc6c(-c7cc(F)cc(NC(=O)c8ccc(C(C)(C)O)cc8F)c7C)ncnc6[nH]5)cc4)CC3)CC2)ccc1N1CCC(=O)NC1=O [Compound 24, N-(3-(6-(4-((4-((1-(4-(2,4-Dioxotetrahydropyrimidin-1(2H)-yl)-3-methoxybenzoyl)piperidin-4-yl)oxy)piperidin-1-yl)methyl)phenyl)-7H-pyrrolo[2,3-d]pyrimidin-4-yl)-5-fluoro-2-methylphenyl)-2-fluoro-4-(2-hydroxypropan-2-yl)benzamide]	55.7%	24 nM	5190 nM	
Cc1c(NC(=O)c2ccc(C(C)(C)O)cc2F)cc(F)cc1-c1ncnc2[nH]c(-c3ccc(CN(C)CCCNC(=O)COc4cccc(N5CCC(=O)NC5=O)c4)cc3)cc12 [Compound 12, N-(3-(6-(4-(((3-(2-(3-(2,4-dioxotetrahydropyrimidin-1(2H)-yl)phenoxy)acetamido)propyl)(methyl)amino)methyl)phenyl)-7H-pyrrolo[2,3-d]pyrimidin-4-yl)-5-fluoro-2-methylphenyl)-2-fluoro-4-(2-hydroxypropan-2-yl)benzamide]	2.3%	10.7 nM	7160 nM	
Cc1c(NC(=O)N2C[C@H](CC(C)C)[C@@H](O)C2)cc(F)cc1-c1ncnc2[nH]c(-c3ccc(CN4CCC(OC5CCN(CCn6cccc(CN7CCC(=O)NC7=O)c6=O)CC5)CC4)cc3)cc12 [Compound 35, (3R,4S)—N-(3-(6-(4-((4-((1-(2-(3-((2,4-dioxotetrahydropyrimidin-1(2H)-yl)methyl)-2-oxopyridin-1(2H)-yl)ethyl)piperidin-4-yl)oxy)piperidin-1-yl)methyl)phenyl)-7H-pyrrolo[2,3-d]pyrimidin-4-yl)-5-fluoro-2-methylphenyl)-3-hydroxy-4-isobutylpyrrolidine-1-carboxamide]	6.6%	2.1 nM	742 nM	
Cc1ccc(S(=O)(=O)NCCCCCNCc2ccc(-c3cc4c(-c5cc(F)cc(NC(=O)c6ccc(C(C)(C)O)cc6F)c5C)ncnc4[nH]3)cc2)cc1N1CCC(=O)NC1=O [Compound 18, N-(3-(6-(4-(((5-(3-(2,4-dioxotetrahydropyrimidin-1(2H)-yl)-4-methylphenylsulfonamido)pentyl)amino)methyl)phenyl)-7H-pyrrolo[2,3-d]pyrimidin-4-yl)-5-fluoro-2-methylphenyl)-2-fluoro-4-(2-hydroxypropan-2-yl)benzamide]	7.6%	307 nM	3090 nM	
Cc1c(NC(=O)c2ccc(C(C)(C)O)cc2F)cc(F)cc1-c1ncnc2[nH]c(-c3ccc(CN4CCN(CCNC(=O)COc5cccc(N6CCC(=O)NC6=O)c5)CC4)cc3)cc12 [Compound 09, N-(3-(6-(4-((4-(2-(2-(3-(2,4-dioxotetrahydropyrimidin-1(2H)-yl)phenoxy)acetamido)ethyl)piperazin-1-yl)methyl)phenyl)-7H-pyrrolo[2,3-d]pyrimidin-4-yl)-5-fluoro-2-methylphenyl)-2-fluoro-4-(2-hydroxypropan-2-yl)benzamide]	3.9%	3.2 nM	1400 nM	
